Where two headings read alike, the source gives them in different places.
Key:
[1] = test system: HIV JRFL strain pseudovirions; assay: Pseudovirion viral infectivity (entry) assay, JRFL; assay type: cell-based, HIV-1
Experimental: (§1) This study included the use of the HIV HXB2 strain and the HIV JRFL strain. Viral infectivity was measured essentially as previously described (Hamburger 2005) with several modifications. 8 μg/mL DEAE-Dextran was used as a fusion enhancer in all assays. Media was changed 22-26 h following infection. […] Fits were weighted by the absolute s.e.m. from quadruplicate points with the minimum allowable error set to 1%.
(§2) Pseudovirion infectivity assays were carried out using HIV HXB2 strain and HIV JRFL strain luciferase reporter pseudovirions (NL4-3 strain) and HOS-CD4-CXCR4 (for HXB2) or HOS-CD4-CCR5 (for JRFL) target cells (Welch, 2007 and 2010). Inhibitors curves were generated using six concentration points measured in quadruplicate, and luciferase counts were normalized to an uninhibited control. Inhibition curves were fit using a standard IC50 equation (1-c/(IC50+c)) weighting each concentration point by its standard error in KaleidaGraph™ (Synergy Software). Reported IC50 values are the average of at least 2 independent assays.

[2] = test system: HIV HXB2 strain pseudovirions; assay: Pseudovirion viral infectivity (entry) assay, HXB2; assay type: cell-based, HIV-1
Experimental: as §1, §2

Q577R HXB2 = assay: Pseudovirion entry assay, resistant strain Q577R; assay type: cell-based, HIV-1; settings: Table 4; resistance mutation discovered against PIE12-trimer
Experimental: as §2

E560K/V570I HXB2 = assay: Pseudovirion entry assay, resistant strain E560K/V570I; assay type: cell-based, HIV-1; settings: Table 4; resistance mutation discovered against PIE7-dimer
Experimental: as §2

[3] = test system: HIV HXB2 strain pseudovirions; settings: Table 5; value marked * (from 20); cited from earlier work
[4] = test system: HIV JRFL strain pseudovirions; settings: Table 5; value marked * (from 20); cited from earlier work
HIV = assay: Infectivity assay; assay type: cell-based
HIV-1 isolate CMU02 = assay: Replication competent virus, PBMC target cells; assay type: cell-based; settings: isolate CMU02, envelope subtype AE
HIV-1 isolate 92UG046 = assay: Replication competent virus, PBMC target cells; assay type: cell-based; settings: isolate 92UG046, envelope subtype D
HIV-1 isolate G3 = assay: Replication competent virus, PBMC target cells; assay type: cell-based; settings: isolate G3, envelope subtype G
HIV-1 isolate 92UG029 = assay: Replication competent virus, PBMC target cells; assay type: cell-based; settings: isolate 92UG029, envelope subtype A
HIV-1 isolate JR-CSF = assay: Replication competent virus, PBMC target cells; assay type: cell-based; settings: envelope subtype B
HIV-1 isolate 93BR020 = assay: Replication competent virus, PBMC target cells; assay type: cell-based; settings: isolate 93BR020, envelope subtype F
HIV-1 isolate 93IN101 = assay: Replication competent virus, PBMC target cells; assay type: cell-based; settings: isolate 93IN101, envelope subtype C
HIV-1 isolate RU570 = assay: Replication competent virus, PBMC target cells; assay type: cell-based; settings: isolate RU570, envelope subtype G
HIV-1 isolate 93BR029 = assay: Replication competent virus, PBMC target cells; assay type: cell-based; settings: isolate 93BR029, envelope subtype F
HIV-1 isolate IIIB = assay: Replication competent virus, PBMC target cells; assay type: cell-based; settings: envelope subtype B
HIV-1 isolate CMU06 = assay: Replication competent virus, PBMC target cells; assay type: cell-based; settings: isolate CMU06, envelope subtype E
HIV-1 isolate 92UG001 = assay: Replication competent virus, PBMC target cells; assay type: cell-based; settings: isolate 92UG001, envelope subtype D
HIV-1 isolate Ba-L = assay: Replication competent virus, PBMC target cells; assay type: cell-based; settings: envelope subtype B
[5] = test system: replication competent HIV strains that cover envelope subtypes A, B, C, D, E, F, and G; assay: Inhibitory breadth against replication competent virus panel; assay type: cell-based, HIV-1
HIV-1 isolate 92BR025 = assay: Replication competent virus, PBMC target cells; assay type: cell-based; settings: isolate 92BR025, envelope subtype C
HIV-1 isolate JR-FL = assay: Replication competent virus, PBMC target cells; assay type: cell-based; settings: envelope subtype B
HIV-1 isolate 92UG037 = assay: Replication competent virus, PBMC target cells; assay type: cell-based; settings: isolate 92UG037, envelope subtype A
HIV-1 isolate 93BR019 = assay: Replication competent virus, PBMC target cells; assay type: cell-based; settings: isolate 93BR019, envelope subtype BF
HIV-1 isolate 93TH073 = assay: Replication competent virus, PBMC target cells; assay type: cell-based; settings: isolate 93TH073, envelope subtype E
[6] = Table 4, cholesterol potency-enhancing cargo

GACDYPEWQWLCAAGK [PIE7-GK]
IC50 ([1]; Table 2, pseudovirion entry): 15800 nM
IC50 ([2]; Table 2, pseudovirion entry): 390 nM

GACDYPEWQWLCAAGKK [PIE7-GKK]
IC50 ([1]; Table 2, pseudovirion entry): 19100 nM
IC50 ([2]; Table 2, pseudovirion entry): 380 nM

HACDYPEWQWLCELGK [PIE15]
IC50 ([1]; Table 2, pseudovirion entry): 1450 nM
IC50 ([2]; Table 2, pseudovirion entry): 67 nM

HPCDYPEWQWLCELGK [PIE12]
IC50 ([1]; Table 2, pseudovirion entry): 578 nM
IC50 [1, 6]: 580 nM
IC50 (Q577R HXB2): 10200 nM
IC50 (E560K/V570I HXB2): 240 nM
IC50 ([2]; Table 2, pseudovirion entry): 37 nM
IC50 [2, 6]: 37 nM
IC50 [3]: 37 ± 2.3 nM
IC50 [4]: 580 ± 21.4 nM

HPCDYPEWQWLCKLGK [PIE13]
IC50 ([1]; Table 2, pseudovirion entry): 1470 nM
IC50 ([2]; Table 2, pseudovirion entry): 41 nM

HPCDYPEWQWLCRLGK [PIE14]
IC50 ([1]; Table 2, pseudovirion entry): 1050 nM
IC50 ([2]; Table 2, pseudovirion entry): 33 nM

KGACDYKEWQWLCAA [PIE8]
IC50 ([1]; Table 2, pseudovirion entry): ~110000 nM

KGACDYPEWQWLCAA [PIE7]
IC50 ([1]; Table 2, pseudovirion entry): 24000 nM
IC50 ([2]; Table 2, pseudovirion entry): 620 nM

KGACDYPEWQWLCAAGK [K-PIE7-GK]
IC50 ([1]; Table 2, pseudovirion entry): 14800 nM

KGACDYPEWRWLCAA [PIE2]
IC50 ([1]; Table 2, pseudovirion entry): 66000 nM

KKGACELLGWEWAWLCAA [D10-p5]
IC50 ([1]; Table 2, pseudovirion entry): > 25000 nM
inhibit infection of cells (HIV): inhibit infection of cells

KKGACESPEWRWLCAA [2K-PIE1]
IC50 ([1]; Table 2, pseudovirion entry): > 100000 nM

enfuvirtide [FUZEON ®]
IC50 (HIV-1 isolate CMU02): 43.8 nM
IC50 (HIV-1 isolate 92UG046): 130 nM
IC50 ([1]; Table 2, pseudovirion entry): 5 nM
IC50 (HIV-1 isolate G3): 23.3 nM
IC50 (HIV-1 isolate 92UG029): 191 nM
IC50 (HIV-1 isolate JR-CSF): 7.03 nM
IC50 (HIV-1 isolate 93BR020): 58.5 nM
IC50 (HIV-1 isolate 93IN101): 22.4 nM
IC50 (HIV-1 isolate RU570): 37 nM
IC50 (HIV-1 isolate 93BR029): 18.6 nM
IC50 (HIV-1 isolate IIIB): 28.3 nM
IC50 ([2]; Table 2, pseudovirion entry): 3.7 nM
IC50 (HIV-1 isolate CMU06): 5.65 nM
IC50 (HIV-1 isolate 92UG001): 182 nM
IC50 (HIV-1 isolate Ba-L): 19.7 nM
fold less inhibition than PIE12-trimer ([5]; HIV subtype A viruses): > 100 fold
fold less inhibition than PIE12-trimer ([5]; subtype C viruses): ~60 fold
IC50 (HIV-1 isolate 92BR025): 305 nM
IC50 (HIV-1 isolate JR-FL): 1.65 nM
IC50 (HIV-1 isolate 92UG037): 41.5 nM
IC50 (HIV-1 isolate 93BR019): > 1000 nM
IC50 (HIV-1 isolate 93TH073): 198 nM

Reference: patent US11020482B2, “Methods and compositions related to inhibition of viral entry” (UNIVERSITY OF UTAH RESEARCH FOUNDATION, priority 2011, dated 2021)
